# Assay results: patent publication US20190083457A1, “MITOCHONDRIAL ALDEHYDE DEHYDROGENASE-2 MODULATORS FOR PROTECTING, EXPANDING AND INCREASING THE POTENCY OF HEMATOPOIETIC STEM CELLS” (The Borad of Trustees of the Leland Stanford Junior …, priority 2017, published 2019)
# Entries after “also recorded” stand apart in the source; their conditions may differ.
# Assays:
# HSC = HSC expansion in mice given Alda-1 by continuous subcutaneous infusion; assay type: in vivo, mice (wild-type C57BL/6N)
# Method: (§1) Mice (wild-type C57BL/6N were administered with Alda-1 (10 mg/kg.day) or vehicle control (50% DMSO/50% PEG-400) by continuous infusion via subcutaneous osmatic pumps for 3 months.
# (§2) Vehicle control and Alda-1 treated mice were then analyzed for HSC functionality. […] With reference to FIG. 1A and FIG. 1B, error bars show standard deviation, significance computed with Student's t-test. *=p≤0.05.
# [1] = Tolerability of chronic Alda-1 administration in vivo; conditions: 10 mg/kg.day continuous subcutaneous infusion, 3 months
# Method: as §1, §2
# HSCs = assay: Competitive repopulation with HSCs from Alda-1 treated and untreated donors; assay type: in vivo, mice; conditions: FIG. 2
# Excerpt: To measure the effects of ALDH2 activation on HSC potency, recipient mice were transplanted with purified HSCs from two donors, one of which had received Alda-1 prior to collection of HSCs for transplant, and another of the same strain which had not received Alda-1 prior to collection for transplant. The two donors were genetically the same except for a difference in the CD45 gene, which allows the blood cells from each to be distinguished from each other and the recipient.
# The Alda-1 treated donor had received Alda-1 subcutaneously for 2 months prior to HSC collection. The cells from the treated and untreated donors were mixed together prior to transplant at fixed ratios of 1:3 (25%), 1:1 (50%), or 3:1 (75%). A total of 3000 HSCs were given intravenously to immunodeficient (γc^-/- Kit^W41/W41) mice after low dose irradiation. The polymorphonuclear neutrophils (PMN, aka granulocytes) in each recipient mouse were tested at 6 weeks after transplant to determine what proportion of the PMN were derived from each HSC donor.
# With reference to FIG. 2, the X-axis represents percentage of total cells infused which were from Alda-1 treated donor and the Y-axis represents the actual percentage of PMN observed after HSCT to be derived from Alda-1 treated donor. The linear line represents the predicted ratio if there were no difference in the repopulating ability of the HSC cells.
structure (smiles),measurement,setting,value
O=C(NCc1ccc2c(c1)OCO2)c1c(Cl)cccc1Cl [Alda-1],HSC expansion (in words),"HSC; Alda-1 10 mg/kg.day, subcutaneous osmotic pumps, 3 months, vs vehicle control",significant HSC expansion
same,increase in (LT)-HSCs,"HSC; Alda-1 10 mg/kg.day, subcutaneous osmotic pumps, 3 months, vs vehicle control, FIG. 1A",4 fold
same,increase in (ST)-HSCs,"HSC; Alda-1 10 mg/kg.day, subcutaneous osmotic pumps, 3 months, vs vehicle control, FIG. 1B",2 fold
same,long-term mouse HSC (in words),HSC; FIG. 1A legend,increases long-term mouse HSC
same,short-term HSC (in words),HSC; FIG. 1B legend,increases short-term HSC
same,tolerability of chronic administration,[1],well tolerated
same,origin of PMN in recipient vs ratio of transplanted cells,"HSCs; 6 weeks after transplant, treated:untreated donor cells 1:3, 1:1 or 3:1",more likely to be derived from the Alda-1 treated donor than predicted
same,potency / repopulating ability of HSC in recipient,"HSCs; donor given Alda-1 subcutaneously for 2 months, 3000 HSCs i.v. to irradiated immunodeficient mice",increased repopulating ability; also recorded: increased the potency of HSC in repopulating recipient
